Laboratory results published in US20080275018A1, “ANTIBACTERIAL AMIDE-MACROCYCLES V” (AiCuris GmbH & Co. KG, priority 2005, published 2008).

Key:
S. aureus RN4220 = experiment: Resistance rate of S. aureus RN4220 on agar containing biphenomycin B; assay type: cell-based, Staphylococcus aureus; settings: S. aureus RN4220, agar plate containing 2 μg/ml biphenomycin B (10×MIC), 37° C. overnight
Method: (§1) The S. aureus Strain RN4220BiR^R is isolated in vitro. For this purpose, 100 μl portions of an S. aureus RN4220 cell suspension (about 1.2×10^8 cfu/ml) are plated out on an antibiotic-free agar plate (18.5 mM Na2HPO4, 5.7 mM KH2PO4, 9.3 mM NH4Cl, 2.8 mM MgSO4, 17.1 mM NaCl, 0.033 μg/ml thiamine hydrochloride, 1.2 μg/ml nicotinic acid, 0.003 μg/ml biotin, 1% glucose, 25 μg/ml of each proteinogenic amino acid with the addition of 0.4% BH broth and 1% agarose) and on an agar plate containing 2 μg/ml biphenomycin B (10×MIC), and incubated at 37° C. overnight. Whereas about 1×10^7 cells grow on the antibiotic-free plate, about 100 colonies grow on the antibiotic-containing plate, corresponding to a resistance rate of 1×10^−5. Some of the colonies grown on the antibiotic-containing plate are tested for the biphenomycin B MIC. One colony with an MIC of >50 μM is selected for further use, and the strain is referred to as RN4220Bi^R.

E. faecium L4001 = experiment: Minimum inhibitory concentration (MIC), E. faecium L4001; assay type: cell-based, Enterococcus faecium; settings: E. faecium L4001; 10% FCS in test medium
Method: (§2) The minimum inhibitory concentration (MIC) is the minimum concentration of an antibiotic with which the growth of a test microbe is inhibited over 18-24 h. The inhibitor concentration can in these cases be determined by standard microbiological methods (see, for example, The National Committee for Clinical Laboratory Standards. Methods for dilution antimicrobial susceptibility tests for bacteria that grow aerobically; approved standard-fifth edition. NCCLS document M7-A5 [ISBN 1-56238-394-9]. NCCLS, 940 West Valley Road, Suite 1400, Wayne, Pa. 19087-1898 USA, 2000). The MIC of the compounds of the invention is determined in the liquid dilution test on the 96-well microtiter plate scale. The bacterial microbes are cultivated in a minimal medium (18.5 mM Na2HPO4, 5.7 mM KH2PO4, 9.3 mM NH4Cl, 2.8 mM MgSO4, 17.1 mM NaCl, 0.033 μg/ml thiamine hydrochloride, 1.2 μg/ml nicotinic acid, 0.003 μg/ml biotin, 1% glucose, 25 μg/ml of each proteinogenic amino acid with the exception of phenylalanine; [H.-P. Kroll; unpublished]) with the addition of 0.4% BH broth (test medium). In the case of Enterococcus faecium L4001, heat-inactivated fetal calf serum (FCS; GibcoBRL, Germany) is added to the test medium in a final concentration of 10%. Overnight cultures of the test microbes are diluted to an OD578 of 0.001 (to 0.01 in the case of enterococci) in fresh test medium, and incubated 1:1 with dilutions of the test substances (1:2 dilution steps) in test medium ([…]). The cultures are incubated at 37° C. for 18-24 hours; enterococci in the presence of 5% CO2.
(§3) The lowest substance concentration in each case at which no visible bacterial growth occurs any longer is defined as the MIC.

S. aureus RN4220Bi^R = experiment: MIC against biphenomycin-resistant S. aureus RN4220Bi^R; assay type: cell-based, Staphylococcus aureus; settings: colony grown on the antibiotic-containing plate
Method: as §1

S. aureus T17 = experiment: Minimum inhibitory concentration (MIC), biphenomycin-resistant S. aureus T17; assay type: cell-based, Staphylococcus aureus
Method: The minimum inhibitory concentration (MIC) is the minimum concentration of an antibiotic with which the growth of a test microbe is inhibited over 18-24 h. The inhibitor concentration can in these cases be determined by standard microbiological methods (see, for example, The National Committee for Clinical Laboratory Standards. Methods for dilution antimicrobial susceptibility tests for bacteria that grow aerobically; approved standard-fifth edition. NCCLS document M7-A5 [ISBN 1-56238-394-9]. NCCLS, 940 West Valley Road, Suite 1400, Wayne, Pa. 19087-1898 USA, 2000). The test substances are thereby initially provided in 1:2 dilution series into 96-well round-bottom microtiter plates (Greiner) double-concentrated in 50 μl of test medium. The aerobically growing test microbes (e.g. staphylococci and enterococci), which are incubated overnight on Columbia blood agar plates (Becton-Dickinson), are, after resuspension in 0.9% NaCl, adjusted to a microbe count of about 5×10^7 microbes/ml and then diluted 1:150 in cation-adjusted MH medium (test medium). 50 μL of this suspension are pipetted onto the test preparations provided in the microtiter plates. The cultures are incubated at 37° C. for 18-24 hours. For microaerophilically growing microbes (e.g. streptococci), 2% lysed horse blood in the final concentration is added to the medium and the cultures are incubated in the presence of 5% CO2. The lowest substance concentration in each case at which no visible bacterial growth occurs any longer is defined as the MIC and is reported in μg/ml.
as §2, §3
The minimum inhibitory concentration (MIC) is the minimum concentration of an antibiotic with which the growth of a test microbe is inhibited over 18-24 h. The inhibitor concentration can in these cases be determined by standard microbiological methods with modified medium in an agar dilution test (see, for example, The National Committee for Clinical Laboratory Standards. Methods for dilution antimicrobial susceptibility tests for bacteria that grow aerobically; approved standard-fifth edition. NCCLS document M7-A5 [ISBN 1-56238-394-9]. NCCLS, 940 West Valley Road, Suite 1400, Wayne, Pa. 19087-1898 USA, 2000). The bacterial microbes are cultivated on 1.5% agar plates which contain 20% defibrinated horse blood. […]

NC[C@H](O)C[C@@H]1NC(=O)[C@@H](N)Cc2cc(ccc2O)-c2ccc(O)c(c2)C[C@@H](C(=O)O)NC1=O [Biphenomycin B, biphenomycin B, reference compound]
resistance rate (S. aureus RN4220): 1×10^−5 | MIC E. faecium L4001 (E. faecium L4001): 0.5 μ/ml | MIC of selected colony (strain RN4220Bi^R) (S. aureus RN4220Bi^R): > 50 µM | MIC S. aureus T17 (S. aureus T17; biphenomycin-resistant S. aureus T17): >32 μ/ml | MIC of selected colony (strain T17) (S. aureus T17; colony isolated from kidney of mice treated with biphenomycin B): > 50 µM
